According to ChEMBL document CHEMBL1201862, “PubChem BioAssay data set” (2004):
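96-well plates; 48 h exposure; 5 concentrations. Endpoints by linear interpolation between flanking doses. Not reached: highest tested concentration assigned. Here, GI50 denotes the concentration required for 50% inhibition of growth.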 Active and inactive are the calls of the source. Rule as the data show it: active = GI50 up to about 1.1 µM and inactive = higher.

Key:
Test in all cases: DTP human tumour cell line panel, 48 h
786-0 = tested on: 786-0
A498 = tested on: A498
A549 = tested on: A549
ACHN = tested on: ACHN
BT-549 = tested on: BT-549
CAKI-1 = tested on: CAKI-1
CCRF-CEM = tested on: CCRF-CEM
COLO 205 = tested on: COLO 205
DU-145 = tested on: DU-145
EKVX = tested on: EKVX
HCC 2998 = tested on: HCC 2998
HCT-116 = tested on: HCT-116
HCT-15 = tested on: HCT-15
HL-60 = tested on: HL-60
HOP-62 = tested on: HOP-62
HOP-92 = tested on: HOP-92
HT-29 = tested on: HT-29
Hs-578T = tested on: Hs-578T
IGROV-1 = tested on: IGROV-1
K562 = tested on: K562
KM12 = tested on: KM12
LOX IMVI = tested on: LOX IMVI
M14 = tested on: M14
MCF7 = tested on: MCF7
MDA-MB-231 = tested on: MDA-MB-231
MDA-MB-435 = tested on: MDA-MB-435
MDA-N = tested on: MDA-N
MOLT-4 = tested on: MOLT-4
Malme-3M = tested on: Malme-3M
NCI-H226 = tested on: NCI-H226
NCI-H23 = tested on: NCI-H23
NCI-H460 = tested on: NCI-H460
NCI-H522 = tested on: NCI-H522
NCI/ADR-RES = tested on: NCI/ADR-RES
OVCAR-3 = tested on: OVCAR-3
OVCAR-4 = tested on: OVCAR-4
OVCAR-5 = tested on: OVCAR-5
OVCAR-8 = tested on: OVCAR-8
PC-3 = tested on: PC-3
RPMI-8226 = tested on: RPMI-8226
RXF 393 = tested on: RXF 393
SF-268 = tested on: SF-268
SF-295 = tested on: SF-295
SF-539 = tested on: SF-539
SK-MEL-2 = tested on: SK-MEL-2
SK-MEL-5 = tested on: SK-MEL-5
SK-OV-3 = tested on: SK-OV-3
SN12C = tested on: SN12C
SNB-19 = tested on: SNB-19
SNB-75 = tested on: SNB-75
SR = tested on: SR
SW-620 = tested on: SW-620
T47D = tested on: T47D
TK-10 = tested on: TK-10
U-251 = tested on: U-251
UACC-257 = tested on: UACC-257
UACC-62 = tested on: UACC-62
UO-31 = tested on: UO-31
SK-MEL-28 = tested on: SK-MEL-28

CCCCc1ccc(Nc2nc(Cl)c3c(ncn3C3CC(Oc4ccc(C)cc4)C(COc4ccc(C)cc4)O3)n2)cc1 (centres undefined) was tested, and the GI50 (786-0) was > 100 µM (inactive), the GI50 (A498) was > 100 µM (inactive) and the GI50 (A549) was > 100 µM (inactive). The GI50 (ACHN) was > 100 µM (inactive), the GI50 (BT-549) was > 100 µM (inactive) and the GI50 (CAKI-1) was > 100 µM (inactive). For the same compound, the GI50 (CCRF-CEM) was > 100 µM (inactive), the GI50 (COLO 205) was > 100 µM (inactive) and the GI50 (DU-145) was > 100 µM (inactive). For the same compound, the GI50 (EKVX) was > 100 µM (inactive), the GI50 (HCC 2998) was > 100 µM (inactive) and the GI50 (HCT-116) was > 100 µM (inactive). For the same compound, the GI50 (HCT-15) was > 100 µM, the GI50 (HL-60) was 87.7 µM (inactive) and the GI50 (HOP-62) was > 100 µM (inactive). For the same compound, the GI50 (HOP-92) was > 100 µM (inactive), the GI50 (HT-29) was > 100 µM (inactive) and the GI50 (Hs-578T) was 42.5 µM (inactive). The GI50 (IGROV-1) was > 100 µM (inactive), the GI50 (K562) was > 100 µM (inactive) and the GI50 (KM12) was > 100 µM (inactive). The GI50 (LOX IMVI) was > 100 µM (inactive), the GI50 (M14) was > 100 µM (inactive) and the GI50 (MCF7) was 39.3 µM (inactive). For the same compound, the GI50 (MDA-MB-231) was > 100 µM (inactive), the GI50 (MDA-MB-435) was > 100 µM (inactive) and the GI50 (MDA-N) was > 100 µM (inactive). The GI50 (MOLT-4) was 33.9 µM (inactive), the GI50 (Malme-3M) was > 100 µM (inactive) and the GI50 (NCI-H226) was > 100 µM (inactive). For the same compound, the GI50 (NCI-H23) was > 100 µM (inactive), the GI50 (NCI-H460) was > 100 µM (inactive) and the GI50 (NCI-H522) was > 100 µM (inactive). The GI50 (NCI/ADR-RES) was > 100 µM (inactive), the GI50 (OVCAR-3) was > 100 µM (inactive) and the GI50 (OVCAR-4) was > 100 µM (inactive). The GI50 (OVCAR-5) was > 100 µM (inactive), the GI50 (OVCAR-8) was > 100 µM (inactive) and the GI50 (PC-3) was > 100 µM (inactive). For the same compound, the GI50 (RPMI-8226) was > 100 µM (inactive), the GI50 (RXF 393) was > 100 µM (inactive) and the GI50 (SF-268) was > 100 µM (inactive). For the same compound, the GI50 (SF-295) was > 100 µM (inactive), the GI50 (SF-539) was 61 µM (inactive) and the GI50 (SK-MEL-2) was > 100 µM (inactive). The GI50 (SK-MEL-5) was > 100 µM (inactive), the GI50 (SK-OV-3) was > 100 µM (inactive) and the GI50 (SN12C) was > 100 µM (inactive). The GI50 (SNB-19) was > 100 µM (inactive), the GI50 (SNB-75) was 22.8 µM (inactive) and the GI50 (SR) was > 100 µM (inactive). The GI50 (SW-620) was > 100 µM (inactive), the GI50 (T47D) was > 100 µM (inactive) and the GI50 (TK-10) was > 100 µM (inactive). For the same compound, the GI50 (U-251) was > 100 µM (inactive), the GI50 (UACC-257) was > 100 µM (inactive) and the GI50 (UACC-62) was > 100 µM (inactive). The GI50 (UO-31) was > 100 µM (inactive).
For CCCCCn1c(=O)c2c(=O)[nH][nH]c2c2ccccc21, the GI50 (786-0) was > 100 µM (inactive), the GI50 (A498) was > 100 µM (inactive) and the GI50 (A549) was > 100 µM (inactive). The GI50 (ACHN) was > 100 µM (inactive), the GI50 (BT-549) was > 100 µM (inactive) and the GI50 (CAKI-1) was > 100 µM (inactive). The GI50 (CCRF-CEM) was > 100 µM (inactive), the GI50 (COLO 205) was > 100 µM (inactive) and the GI50 (DU-145) was > 100 µM (inactive). For the same compound, the GI50 (HCC 2998) was > 100 µM (inactive), the GI50 (HCT-116) was > 100 µM (inactive) and the GI50 (HCT-15) was > 100 µM. The GI50 (HL-60) was > 100 µM (inactive), the GI50 (HOP-62) was > 100 µM (inactive) and the GI50 (HOP-92) was > 100 µM (inactive). The GI50 (HT-29) was > 100 µM (inactive), the GI50 (Hs-578T) was > 100 µM (inactive) and the GI50 (IGROV-1) was > 100 µM (inactive). For the same compound, the GI50 (K562) was > 100 µM (inactive), the GI50 (KM12) was > 100 µM (inactive) and the GI50 (LOX IMVI) was > 100 µM (inactive). The GI50 (MCF7) was > 100 µM (inactive), the GI50 (MDA-MB-231) was > 100 µM (inactive) and the GI50 (MDA-MB-435) was > 100 µM (inactive). The GI50 (MDA-N) was > 100 µM (inactive), the GI50 (MOLT-4) was > 100 µM (inactive) and the GI50 (Malme-3M) was > 100 µM (inactive). For the same compound, the GI50 (NCI-H226) was > 100 µM (inactive), the GI50 (NCI-H23) was > 100 µM (inactive) and the GI50 (NCI-H460) was > 100 µM (inactive). The GI50 (NCI-H522) was > 100 µM (inactive), the GI50 (NCI/ADR-RES) was > 100 µM (inactive) and the GI50 (OVCAR-3) was > 100 µM (inactive). The GI50 (OVCAR-4) was > 100 µM (inactive), the GI50 (OVCAR-5) was > 100 µM (inactive) and the GI50 (OVCAR-8) was > 100 µM (inactive). The GI50 (PC-3) was > 100 µM (inactive), the GI50 (RPMI-8226) was > 100 µM (inactive) and the GI50 (RXF 393) was > 100 µM (inactive). The GI50 (SF-268) was > 100 µM (inactive), the GI50 (SF-295) was > 100 µM (inactive) and the GI50 (SF-539) was > 100 µM (inactive). The GI50 (SK-MEL-28) was > 100 µM (inactive), the GI50 (SK-MEL-2) was > 100 µM (inactive) and the GI50 (SK-MEL-5) was > 100 µM (inactive). For the same compound, the GI50 (SK-OV-3) was > 100 µM (inactive), the GI50 (SN12C) was > 100 µM (inactive) and the GI50 (SNB-75) was > 100 µM (inactive). For the same compound, the GI50 (SR) was > 100 µM (inactive), the GI50 (SW-620) was > 100 µM (inactive) and the GI50 (T47D) was > 100 µM (inactive). For the same compound, the GI50 (TK-10) was > 100 µM (inactive), the GI50 (U-251) was > 100 µM (inactive) and the GI50 (UACC-257) was > 100 µM (inactive). For the same compound, the GI50 (UACC-62) was > 100 µM (inactive) and the GI50 (UO-31) was > 100 µM (inactive).
